Test results as given in article PMC6411751, “Use of machine learning to identify novel, behaviorally active antagonists of the insect odorant receptor co-receptor (Orco) subunit” (Scientific Reports, 2019).
Read-outs that look alike come from different tables or passages of the source.

Experiments:
[1] = test system: Agam\ORs; set-up: method as in ref 2-5 (a number printed in a supplementary file, which may have a reference list of its own: not looked up in the article's list); details: cited from earlier work
[2] = test system: Dmel\Or83c; set-up: method as in ref 1 Münch, D., Galizia, C.G. DoOR 2.0 (2016); details: ref 1 Münch, D., Galizia, C.G. DoOR 2.0 (2016); cited from earlier work
[3] = test system: Dmel\Or71a; set-up: method as in ref 1 Münch, D., Galizia, C.G. DoOR 2.0 (2016); details: ref 1 Münch, D., Galizia, C.G. DoOR 2.0 (2016); cited from earlier work
[4] = test system: Dmel\Or19a; set-up: method as in ref 1 Münch, D., Galizia, C.G. DoOR 2.0 (2016); details: ref 1 Münch, D., Galizia, C.G. DoOR 2.0 (2016); cited from earlier work
[5] = test system: Dmel\Or85b; set-up: method as in ref 1 Münch, D., Galizia, C.G. DoOR 2.0 (2016); details: ref 1 Münch, D., Galizia, C.G. DoOR 2.0 (2016); cited from earlier work
[6] = biological target: T1, Agam\Orco (Anopheles gambiae, UniProt Q7QCC7); assay: cell-based; format: cell-based
T1 construct: expressed in transfected cells; host or cells: Xenopus laevis oocytes injected with capped cRNA (plasmid pT7TS, gift of L. Zwiebel)
T1 sequence (Q7QCC7 1-478): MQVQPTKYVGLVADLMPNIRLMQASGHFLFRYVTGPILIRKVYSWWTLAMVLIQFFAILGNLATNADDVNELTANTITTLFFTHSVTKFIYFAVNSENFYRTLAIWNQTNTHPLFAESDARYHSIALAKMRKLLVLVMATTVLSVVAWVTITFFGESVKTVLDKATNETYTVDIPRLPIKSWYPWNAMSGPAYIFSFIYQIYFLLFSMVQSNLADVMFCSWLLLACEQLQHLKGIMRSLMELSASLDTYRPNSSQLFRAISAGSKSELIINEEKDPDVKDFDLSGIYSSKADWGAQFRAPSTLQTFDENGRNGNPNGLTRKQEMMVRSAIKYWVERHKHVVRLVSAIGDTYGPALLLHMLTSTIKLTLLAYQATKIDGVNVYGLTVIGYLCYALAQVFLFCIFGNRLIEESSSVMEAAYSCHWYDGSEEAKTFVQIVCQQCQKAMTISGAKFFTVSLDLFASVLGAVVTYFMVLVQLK
Protocol: A 2 hr incubation with collagenase B (Roche) was used to remove follicle cells from oocytes. Capped cRNA for Agam\Orco was synthesized using mMessage mMachine kits (Thermo Fisher Scientific). 25 ng of cRNA was injected into stage V–VI oocytes, followed by a 2–5 day incubation at 18 °C in Barth’s saline (in mM: 88 NaCl, 1 KCl, 2.4 NaHCO3, 0.3 CaNO3, 0.41 CaCl2, 0.82 MgSO4, 15 HEPES, pH 7.4, and 0.05 g/L tetracycline, 0.05 g/L ciprofloxacin, 0.1 g/L amikacin) prior to electrophysiological recordings.
(§1) An automated parallel electrophysiology system (OpusExpress 6000 A, Molecular Devices) was used to record Orco agonist (OLC12) or odorant induced currents under two-electrode voltage clamp. Oocytes were perfused with ND96 (in mM: 96 NaCl, 2 KCl, 1 CaCl2, 1 MgCl2, 5 HEPES, pH 7.4). DMSO was used to prepare 1 M or 100 mM stock solutions of test compounds, which were then diluted in ND96 on the day of the experiment. Compounds were applied at a flow rate of 1.0 mL/min, with extensive washing in ND96 at 4.6 mL/min between applications. Micropipettes with resistances of 0.2–2.0 MΩ were filled with 3 M KCl. The holding potential was −70 mV. Current responses were filtered (4-pole, Bessel, low pass) at 20 Hz (−3 db) and sampled at 100 Hz. OpusXpress 1.1 software (Molecular Devices) was used to capture and store current responses.
To measure antagonist activity at Orco, Agam\Orco was activated by the Orco agonist OLC12[34]. […] The current response to OLC12 in the presence of antagonist candidate was compared to the mean of the preceding two responses to OLC12 alone and presented as a percentage[34],[35]. This value was then normalized to the value obtained when the assay was run in the absence of antagonist candidate (sham).
During development of the training panel (Fig. 2, Tables S1 and S2), all compounds not previously known to be Orco antagonists were tested at a concentration of 3 mM. […] Concentration-inhibition curves were constructed for all compounds eliciting >20 percent inhibition at 3 mM. The same concentration and criteria were used during screening of predicted actives (Fig. 4D) and predicted inactives (Fig. 5C).
Clampfit 9.1 software (Molecular Devices) was used to perform initial analysis of electrophysiological data. Prism 7 (Graphpad) was used for curve fitting. Concentration-inhibition data were fit to the equation: I = Imax/(1 + (X/IC50)^n) where I represents the current response at a given concentration of inhibitor, X; Imax is the maximal response in the absence of inhibitor; IC50 is the concentration of inhibitor present that allows a half maximal response from OLC12; n is the apparent Hill coefficient.

[7] = test system: Dmel\Or22a; set-up: method as in ref 1 Münch, D., Galizia, C.G. DoOR 2.0 (2016); details: ref 1 Münch, D., Galizia, C.G. DoOR 2.0 (2016); cited from earlier work
[8] = test system: Dmel\Or69a; set-up: method as in ref 1 Münch, D., Galizia, C.G. DoOR 2.0 (2016); details: ref 1 Münch, D., Galizia, C.G. DoOR 2.0 (2016); cited from earlier work
[9] = test system: Dmel\Or92a; set-up: method as in ref 1 Münch, D., Galizia, C.G. DoOR 2.0 (2016); details: ref 1 Münch, D., Galizia, C.G. DoOR 2.0 (2016); cited from earlier work
[10] = test system: Cqui\Or21 + Cqui\Orco; assay: Inhibition of heteromeric OR in oocytes (3-methylindole or OLC12 activation); format: cell-based, Culex quinquefasciatus; details: Orco agonist activation of Cqui\Or21 + Cqui\Orco
Protocol: as §1
(§2) To measure the ability of Orco antagonists to inhibit odorant activation, oocytes expressing heteromeric ORs (Orco + ORX) were exposed to a 30 sec application of odorant followed by a 20 min wash. Oocytes were then exposed to a 90 sec application of Orco antagonist, immediately followed by a 30 sec co-application of Orco antagonist and odorant. The current response to odorant in the presence of Orco antagonist was compared to the preceding response to odorant alone and represented as a percentage. This value was then normalized to the value obtained when the assay was run in the absence of antagonist (sham).
(§3) Figure S3. Effects of Orco antagonists on heteromeric ORs. […]
(§4) heteromeric complexes of odorant specificity subunits and Orco. The Orco antagonists tested were 3-isopropyl-6-methyl-catechol (3 I6 MC), a potent compound from the input training set, and two compounds id e ntified in Fig u re 4 an d Ta b le 1 : 2-tert-butyl-6-methylphenol (B MP ) and linalyl formate (LF) . These compounds were tested for antagonist activity against odorant activation of three ORs from Anopheles gambiae (Agam\Or28 + Agam\Orco, Agam\Or39 + A ga m\Orco, Agam\Or65 + A ga m\Orco), o ne O R fro m Culex quinquefasciatus, the southern house mosquito (Cq u i\Or21 + Cqui\Orco) an d on e O R f ro m Drosophila melanogaster (Dme l\Or35a + Dmel\Orco). Each OR was activated by its cognate odorant agonist applied at an approximate EC50 concentration. […]
(§5) SEM (n = 4). […] Statistical significance of the data in each panel was assessed by one-way analysis of variance followed by Dunnett’s multiple comparison test using the pre-normalized values for each antagonist compared to the values obtained in the sham recordings (*, p < 0 .0 5; **, p < 0. 01; ***, p < 0 . 00 1 ).

[11] = biological target: T2, Dmel\Or35a + Dmel\Orco (Drosophila melanogaster, UniProt Q9VNB5); assay: Inhibition of heteromeric OR in oocytes (hexanol or OLC12 activation); format: cell-based; details: Orco agonist activation of Dmel\Or35a + Dmel\Orco
T2 construct: expressed in transfected cells; host or cells: Xenopus laevis oocytes
T2 sequence (Q9VNB5 1-486): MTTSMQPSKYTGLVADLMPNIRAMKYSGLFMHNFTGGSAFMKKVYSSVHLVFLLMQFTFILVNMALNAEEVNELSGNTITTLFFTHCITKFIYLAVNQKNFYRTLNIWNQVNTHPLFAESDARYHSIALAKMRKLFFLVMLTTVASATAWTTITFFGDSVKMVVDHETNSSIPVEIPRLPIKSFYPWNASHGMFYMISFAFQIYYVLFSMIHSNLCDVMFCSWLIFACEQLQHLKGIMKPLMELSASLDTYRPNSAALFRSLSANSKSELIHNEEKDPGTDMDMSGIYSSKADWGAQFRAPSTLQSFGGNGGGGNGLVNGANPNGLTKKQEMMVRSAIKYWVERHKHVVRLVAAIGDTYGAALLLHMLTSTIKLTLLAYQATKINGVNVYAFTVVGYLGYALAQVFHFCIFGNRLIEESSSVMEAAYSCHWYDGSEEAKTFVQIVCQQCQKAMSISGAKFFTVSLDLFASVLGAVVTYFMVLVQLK
T2 sequence (Q9V3Q2 1-409 partner): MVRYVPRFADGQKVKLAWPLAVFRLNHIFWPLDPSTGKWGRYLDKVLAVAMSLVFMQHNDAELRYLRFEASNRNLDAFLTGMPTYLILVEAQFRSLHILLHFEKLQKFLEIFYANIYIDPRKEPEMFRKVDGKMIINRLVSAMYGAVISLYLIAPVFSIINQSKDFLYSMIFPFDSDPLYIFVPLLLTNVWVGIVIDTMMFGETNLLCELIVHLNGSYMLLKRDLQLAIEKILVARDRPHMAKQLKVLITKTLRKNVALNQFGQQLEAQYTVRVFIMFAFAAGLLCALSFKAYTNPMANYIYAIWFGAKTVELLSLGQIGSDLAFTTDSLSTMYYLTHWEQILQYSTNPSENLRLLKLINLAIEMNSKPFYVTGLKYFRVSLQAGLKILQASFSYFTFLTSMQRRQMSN
Protocol: as §1, §2, §3, §4, §5

[12] = test system: D. melanogaster larvae; assay: Larval chemotaxis assay (attraction to ethyl acetate); format: in vivo, Drosophila melanogaster; details: 10 µL of EA diluted 1:10^−6 in mineral oil vs mineral oil alone; mean ± SEM
Protocol: We have previously provided a detailed description of these methods. Briefly, Canton-S (CS) flies were used as wild type (wt). The experimental chamber was a 100 × 15 mm polystyrene Petri dish (VWR) with 20 mL of 1.1% agarose coating the bottom. In this assay, 50 third-instar larvae were placed inside a “starting circle” at the center of the plate (the circle was drawn on the outside bottom of the plate). A line was also drawn that divided the plate in half. Small filter paper discs (d = 6 mm, Whatman Cellulose Filter Paper, # 1030 023) were placed on opposite sides of the plate (see Fig. 8A). Onto each filter paper disc was placed 10 μL of solution, containing either vehicle of dilution (mineral oil), odorant attractant (EA, diluted in mineral oil) or an Orco antagonist compound (diluted in mineral oil). The sides of the plate on which the compounds or vehicle were placed were alternated from experiment to experiment.
In order to test Orco antagonists for the ability to affect the chemotaxis assay, a large (d = 9 cm) filter paper (Whatman Filter Paper # D00161-S) was adhered with double-sided tape to the inside of the Petri dish lid. This allowed the larvae to be exposed to Orco antagonists in an airborne context. For light repulsion experiments, we used a Zeiss CL6000 LED light source at 76% intensity. Following the 5 min migratory period, plates were photographed, coded and then blind counted. Any larvae still within the starting circle or touching the center line were excluded from the analysis. A Response Index (RI) was calculated as RI = (S − C)/(S + C), where S is the number of larvae on the stimulus (EA) side and C is the number of larvae on the control (mineral oil) side. RI = 1 would indicate complete attraction, RI = −1 would indicate complete repulsion, and RI = 0 would indicate no preference. Statistical significance was assessed using a one-way analysis of the variance followed by Dunnett’s’s post-test.

[13] = test system: Dmel\Or67a; set-up: method as in ref 1 Münch, D., Galizia, C.G. DoOR 2.0 (2016); details: ref 1 Münch, D., Galizia, C.G. DoOR 2.0 (2016); cited from earlier work
[14] = Table S1, training actives, Agam\Orco activated by 30 µM OLC12, mean ± SEM (n = 3-8), read-out: IC50

## CC(C)=CCC[C@@H](C)CC=O [citronellal]
[1]; Or5, Or12, Or15, Or25, Or45, Or73
  activity at Agam\ORs (basal activity): inhibition of basal
[1]; Or30, Or31, Or48, Or50, Or75
  activity at Agam\ORs: activation
[2]
  scaled response from DoOR (max = 1.0): 0.092

## CC(O)CCc1ccccc1 (stereo not shown) [4-phenyl-2-butanol]
[3]
  scaled response from DoOR (max = 1.0): 0.063

## CC(C)c1ccc(C=O)cc1 [4-isopropylbenzaldehyde]
[4]
  scaled response from DoOR (max = 1.0): 0.351
[5]
  scaled response from DoOR (max = 1.0): 0.222

## O=C/C=C/c1ccccc1 [trans-cinnamaldehyde]
[6]
  IC50: 1870 ± 94 µM
[4]
  scaled response from DoOR (max = 1.0): 0.112

## CC(C)=CCC/C(C)=C/C=O [citral]
[6]; [14]
  IC50: 452 ± 44 µM
[7]
  scaled response from DoOR (max = 1.0): 0.140
[8]
  scaled response from DoOR (max = 1.0): 0.483
[9]
  scaled response from DoOR (max = 1.0): 0.325

## Cc1ccc(C(C)C)cc1 [p-cymene]
[3]
  scaled response from DoOR (max = 1.0): 0.063

## CCn1c(SCC(=O)Nc2ccc(C(C)C)cc2)nnc1-c1ccncc1 [OLC12, 2-((4-Ethyl-5-(4-pyridinyl)-4H-1,2,4-triazole-3-yl)sulfanyl)-N-(4-isopropylphenyl)acetamide, reference compound]
[10]
  approximate EC25: ~3 µM
[11]
  approximate EC25: ~10 µM

## CCOC(C)=O [ethyl acetate, reference compound]
[6]; read-out: inhibition of Agam\Orco (OLC12 response) at 3 mM, 3 mM compound, 30 µM OLC12
  inhibition at 3000 µM: ≤ 20%
[12]
  response index (RI): 0.76 ± 0.08

## CC(C)=CCCC(C)=CCCC(C)=CC=O [farnesal]
[2]
  scaled response from DoOR (max = 1.0): 0.046

## CCc1ccccc1O [2-ethylphenol]
[6]
  IC50: 261 ± 14 µM
[6]; Agam\Orco IC50 compared with BMP
  loss of potency relative to BMP: 5.5 fold
[1]; Or2, Or9, Or10, Or11, Or14, Or18, Or20, Or38, Or41, Or50, Or57
  activity at Agam\ORs: activation
[8]
  scaled response from DoOR (max = 1.0): 0.356

## CCOC(=O)/C=C/c1ccccc1 [ethyl-trans-cinnamate]
[6]; [14]
  IC50: 134 ± 16 µM
[13]
  scaled response from DoOR (max = 1.0): 0.143

## C=Cc1ccc(O)cc1 [4-hydroxystyrene]
[3]
  scaled response from DoOR (max = 1.0): 0.131
